Experimental data taken from paper PMC9806845, “Recombinant actin-depolymerizing factor of the apicomplexan Neospora caninum (NcADF) is susceptible to oxidation” (Frontiers in Cellular and Infection Microbiology, 2022).

Molecular target: T1, NcADF (Neospora caninum, UniProt F0VCT8)
T1 construct: gene NCLIV_012510; N-terminal 6xHis tag, pET28(a), E. coli BL21(DE3), IMAC; 18 kDa; cysteines at 11, 58, 65, 75; TCEP-reduced before assay
T1 sequence (F0VCT8 1-118): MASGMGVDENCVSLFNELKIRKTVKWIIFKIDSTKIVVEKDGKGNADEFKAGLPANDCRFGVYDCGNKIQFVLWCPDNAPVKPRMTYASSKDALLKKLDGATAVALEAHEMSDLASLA
Assay: DTNB free-thiol assay; also biotin-iodoacetamide alkylation and SDS-PAGE dimerization
Format: biochemical
Details: covalent (cysteine oxidation, reversible disulfide dimers); 25 uM protein, 20 mM Tris pH 7.0, 30 min

O=S(=O)(O)CCNCl [NCT, N-chlorotaurine]
DTNB free-thiol assay; also biotin-iodoacetamide alkylation and SDS-PAGE dimeriz: micromolar concentration of NCT, but not of H2O2, was sufficient to oxidize the protein
